# Test results as given in US10988456B2, “O-aminoheteroaryl alkynyl-containing compound, preparation method therefor, and use thereof” (SHANGHAI INSTITUTE OF MATERIA MEDICA, CHINESE ACADEMY OF …, priority 2017, dated 2021).
# Assays:
# [1] = target: FGFR1 (Homo sapiens, UniProt P11362); assay: Inhibition of receptor tyrosine kinase activity at molecular level (ELISA, Poly(Glu,Tyr)4:1 substrate phosphorylation); format: biochemical; details: 10 nM compound; average of two independent experiments
# Experimental: (§1) Enzyme reaction substrate Poly(Glu, Tyr)4:1 was diluted with potassium-free PBS (10 mM sodium phosphate buffer, 150 mM NaCl, pH 7.2-7.4) to 20 μg/mL. […] The reaction was conducted under 37° C. for 12-16 hours. After the liquid was removed from the wells, the plate was washed three times with 200 μL/well of T-PBS (PBS containing 0.1% Tween-20), each for 5 minutes. The enzyme plate was dried in 37° C. dryer for 1-2 hours.
# (§2) 50 μL ATP solution diluted with buffer (50 mM HEPES pH 7.4, 50 mM MgCl2, 0.5 mM MnCl2, 0.2 mM Na3VO4, 1 mM DTT) to a final concentration of 5 μM was added into each well. The compound was diluted with DMSO to a suitable concentration (1 μL/well) or the well contained the corresponding concentration of DMSO (negative control well) Then various kinase recombinant proteins diluted with 49 μL of reaction buffer was added to initiate the reaction. Each experiment required duplicate enzyme-free control well. The reaction was carried out for 1 hour on a 37° C. Shaker (100 rpm). The plate was washed three times with T-PBS. A dilution of the primary antibody PY99 was added (100 μL/well), and the reaction was conducted in a shaker at 37° C. for 0.5 hr. The plate was washed three times with T-PBS. A dilution of the horseradish peroxidase-labeled goat anti-mouse IgG secondary antibody was added (100 μL/well), and the reaction was conducted in a shaker at 37° C. for 0.5 hour. Plate was washed with T-PBS for three times. 2 mg/mL OPD coloration solution (diluted with 0.1 M citric acid-sodium citrate buffer containing 0.03% H2O2 (pH=5.4)) was added (100 μL/well), reacted for 1-10 minutes at 25° C. in dark. The reaction was quenched with 2M H2SO4 (50 μL/well), and read at 490 nm using a tunable microplate reader SPECTRA MAX 190.
# (§3) The inhibition ratio of the sample was determined by the following formula: […]
# (§4) The IC50 values were obtained via four-parameter regression analysis using the software supplied with the microplate reader.
# [2] = target: KDR (Homo sapiens, UniProt P35968); assay: as above; format: biochemical; details: 10 nM compound; average of two independent experiments
# KDR, sequence (P35968 20-1356): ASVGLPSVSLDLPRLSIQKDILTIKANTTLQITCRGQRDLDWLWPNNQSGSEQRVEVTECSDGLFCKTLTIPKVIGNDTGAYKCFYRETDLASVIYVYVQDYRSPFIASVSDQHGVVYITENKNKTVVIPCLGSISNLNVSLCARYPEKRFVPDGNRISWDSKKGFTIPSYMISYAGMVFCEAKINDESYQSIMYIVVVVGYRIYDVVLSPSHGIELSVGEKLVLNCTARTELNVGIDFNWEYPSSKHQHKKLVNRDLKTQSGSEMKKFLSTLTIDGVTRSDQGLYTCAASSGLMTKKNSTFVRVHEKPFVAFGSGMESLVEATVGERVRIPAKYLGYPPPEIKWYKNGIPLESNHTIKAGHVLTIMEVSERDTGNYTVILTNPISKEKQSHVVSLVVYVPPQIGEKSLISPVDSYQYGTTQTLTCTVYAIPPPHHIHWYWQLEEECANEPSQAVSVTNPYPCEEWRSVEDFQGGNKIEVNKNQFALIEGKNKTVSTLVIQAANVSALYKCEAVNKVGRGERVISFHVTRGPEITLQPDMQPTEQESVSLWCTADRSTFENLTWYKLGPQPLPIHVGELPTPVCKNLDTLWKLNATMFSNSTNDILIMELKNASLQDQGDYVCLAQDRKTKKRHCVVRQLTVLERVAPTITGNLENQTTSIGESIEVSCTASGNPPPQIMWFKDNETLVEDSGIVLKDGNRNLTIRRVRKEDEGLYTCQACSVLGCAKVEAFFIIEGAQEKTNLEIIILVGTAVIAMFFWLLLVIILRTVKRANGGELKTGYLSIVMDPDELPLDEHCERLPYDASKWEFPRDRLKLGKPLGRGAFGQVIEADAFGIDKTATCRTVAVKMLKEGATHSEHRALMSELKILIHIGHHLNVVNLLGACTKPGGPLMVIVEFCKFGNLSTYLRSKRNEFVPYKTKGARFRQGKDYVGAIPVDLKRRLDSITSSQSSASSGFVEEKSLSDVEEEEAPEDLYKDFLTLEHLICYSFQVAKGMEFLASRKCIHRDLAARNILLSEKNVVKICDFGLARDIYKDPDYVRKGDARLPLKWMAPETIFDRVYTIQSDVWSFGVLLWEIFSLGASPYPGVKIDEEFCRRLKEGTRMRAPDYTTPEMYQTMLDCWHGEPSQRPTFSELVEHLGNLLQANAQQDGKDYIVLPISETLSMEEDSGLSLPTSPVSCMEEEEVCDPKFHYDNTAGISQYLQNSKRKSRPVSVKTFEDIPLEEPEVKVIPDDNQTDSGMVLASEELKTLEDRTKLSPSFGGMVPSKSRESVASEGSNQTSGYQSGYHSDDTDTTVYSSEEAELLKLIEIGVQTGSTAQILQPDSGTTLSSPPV
# Experimental: as §1, §2, §3, §4
# [3] = target: RET (Homo sapiens, UniProt P07949); assay: as above; format: biochemical; details: for 10 nM inhibition ratio RET: 10 nM compound, average of two independent experiments
# RET, sequence (P07949 29-1114): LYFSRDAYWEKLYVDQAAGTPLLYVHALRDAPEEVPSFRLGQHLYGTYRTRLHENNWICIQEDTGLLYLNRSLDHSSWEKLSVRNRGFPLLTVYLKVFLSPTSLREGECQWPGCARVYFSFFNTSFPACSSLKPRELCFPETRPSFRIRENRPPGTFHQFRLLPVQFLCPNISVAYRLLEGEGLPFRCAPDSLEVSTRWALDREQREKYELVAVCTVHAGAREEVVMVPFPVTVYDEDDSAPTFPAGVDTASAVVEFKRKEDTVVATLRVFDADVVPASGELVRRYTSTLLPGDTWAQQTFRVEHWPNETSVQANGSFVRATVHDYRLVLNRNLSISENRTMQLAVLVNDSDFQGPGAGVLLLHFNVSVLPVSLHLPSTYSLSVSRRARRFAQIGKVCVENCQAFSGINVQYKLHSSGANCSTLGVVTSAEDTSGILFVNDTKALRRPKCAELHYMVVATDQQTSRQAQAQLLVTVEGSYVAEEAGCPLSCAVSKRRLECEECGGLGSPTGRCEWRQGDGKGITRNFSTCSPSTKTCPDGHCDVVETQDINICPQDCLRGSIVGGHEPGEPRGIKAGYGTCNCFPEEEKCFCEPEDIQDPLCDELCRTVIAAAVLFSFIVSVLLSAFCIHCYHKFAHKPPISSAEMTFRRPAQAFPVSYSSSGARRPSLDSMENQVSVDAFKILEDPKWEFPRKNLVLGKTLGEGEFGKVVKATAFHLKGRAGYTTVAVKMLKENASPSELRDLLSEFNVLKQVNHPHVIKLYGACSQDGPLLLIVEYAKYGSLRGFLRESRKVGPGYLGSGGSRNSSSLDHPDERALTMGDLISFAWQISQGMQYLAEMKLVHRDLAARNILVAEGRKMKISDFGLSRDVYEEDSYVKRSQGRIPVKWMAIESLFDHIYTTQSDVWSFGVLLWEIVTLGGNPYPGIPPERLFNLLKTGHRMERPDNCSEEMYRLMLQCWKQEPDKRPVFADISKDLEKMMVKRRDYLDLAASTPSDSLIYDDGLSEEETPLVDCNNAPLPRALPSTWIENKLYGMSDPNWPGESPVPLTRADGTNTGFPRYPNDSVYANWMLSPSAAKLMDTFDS
# Experimental: as §1, §2, §3, §4
# [4] = target: T1, Ret (V804M) (Homo sapiens, UniProt P07949, V804M); assay: Inhibition of RET-related mutant enzyme activity (ELISA); format: biochemical; details: measured twice, Mean ± SD
# T1 construct: purchased
# T1 sequence (P07949 29-1114 V804M): as the sequence (P07949 29-1114) above, with V776M counted along it
# Experimental: Enzyme reaction substrate Poly(Glu, Tyr)4:1 was diluted with potassium-free PBS (10 mM sodium phosphate buffer, 150 mM NaCl, pH 7.2-7.4) to 20 μg/mL. The enzyme label plate was coated with 125 μL/well. The reaction was conducted under 37° C. for 12-16 hours. After the liquid was removed from the wells, the plate was washed three times with 200 μL/well of T-PBS (PBS containing 0.1% Tween-20), each for 5 minutes. The enzyme plate was dried in 37° C. dryer for 1-2 hours.
# 50 μL ATP solution diluted with buffer (50 mM HEPES pH 7.4, 50 mM MgCl2, 0.5 mM MnCl2, 0.2 mM Na3VO4, 1 mM DTT) to a final concentration of 5 μM was added into each well. The compound was diluted with DMSO to a suitable concentration (1 μL/well) or the well contained the corresponding concentration of DMSO (negative control well) Then various kinase recombinant proteins diluted with 49 μL of reaction buffer was added to initiate the reaction. Each experiment required duplicate enzyme-free control well. The reaction was carried out for 1 hour on a 37° C. Shaker (100 rpm). […] The reaction was quenched with 2M H2SO4 (50 μL/well), and read at 490 nm using a tunable microplate reader SPECTRA MAX 190.
# as §3
# The IC50 values were obtained via four-parameter regression analysis using the software supplied with the microplate reader. […]
# [5] = tested on: RET signaling pathway in TT and BaF3/CCDC6-RET cells; assay: Western blotting of RET signaling pathway activation in cells; format: cell-based; details: compounds 2 hours; P-RET, P-AKT, P-ErK
# Experimental: Detecting the Effect of Compounds on the Activation of RET Signaling Pathway in TT and BaF3/CCDC6-RET Cells by Western Blotting
# The cells were seeded into a 12-well plate (250,000/well). After incubation for 18-24 hours, the compounds were added to react for 2 hours, and then the cells were collected and firstly washed once with cold PBS (containing 1 mmol sodium vanadate); then 1×SDS gel loading buffer (50 mmol Tris-HCl (pH 6.8), 100 mmol DTT, 2% SDS, 10% glycerol, 1 mmol sodium vanadate, 0.1% bromophenol blue) was added to lyse cells. The cell lysate was heated in a boiling water bath for 10 minutes, and then centrifuged at 12,000 rpm for 10 minutes at 4° C.
# The supernatant was taken for SDS-PAGE electrophoresis (Mini-PROTEAN 3 Cell, Bio-Rad, Hercules, Calif., USA). After electrophoresis, the proteins were transferred to a nitrocellulose membrane using a semi-dry electrotransfer system (Amersham Life Sciences, Arlington Heights, Ill., USA). The nitrocellulose membrane was placed in a blocking solution (5% skim milk powder diluted in TBS containing 1 mmol sodium vanadate) for 2 hours at room temperature, and then the membrane was placed and reacted with a primary antibody at 4° C. overnight. […] The membrane was placed in a secondary antibody solution and reacted for 1-2 hours at room temperature. After the membrane was washed three times as above, the membrane was stained using ECL (Picece, Rockford, Ill.) reagent was used for staining and then developed.
# [6] = Pharmacokinetic experiment in rat (IV and PO, plasma LC-MS/MS)
# Experimental: (§5) Ponatinib (AP24534) was administered intravenously (IV) and orally (PO) to SD rats. Blood samples were taken at different time points. LC-MS/MS was used to determine the concentration of compound in the plasma of rats after administration of the test compound, and the relevant pharmacokinetic parameters were calculated to examine oral bioavailability and pharmacokinetic properties of the compound in rats.
# as §5, with “Compound HuFGFR267” for “Ponatinib (AP24534)”, “intravenously” for “intravenously (IV)”, “orally” for “orally (PO)”
# [7] = tested on: human gastric cancer SNU-16 xenografts; assay: Growth of subcutaneous xenografts of human gastric cancer SNU-16 in nude mice (comparative compounds study); details: for Relative tumor volume RTV (mean ± SD): SNU-16, 30 mg/kg orally once a day; for Weight (g, mean ± SD): SNU-16 tumor-bearing mice, 30 mg/kg orally once a day
# [8] = tested on: human lung cancer NCI-H1581 xenografts; assay: Growth of subcutaneous xenografts of human lung cancer NCI-H1581 in nude mice; format: in vivo; details: for Relative tumor volume RTV (mean ± SD): NCI-H1581, 12.5 mg/kg orally once a day; for Weight (g, mean ± SD): NCI-H1581 tumor-bearing mice, 12.5 mg/kg orally once a day
# Experimental: (§6) The diameter of the subcutaneously implanted tumor in nude mice was measured by a vernier caliper. […] In the compound HuFGFR267 50 mg/kg group, the compound was formulated with 0.5% methylcellulose (MC) to the required concentration before use. The formulation of compound was prepared once a week, and orally administered once a day for 14 days. The positive control drug AZD4547 was diluted to the required concentration with water for injection containing 1% Tween 80 before use. The formulation of AZD4547 was prepared once a week, and orally administered once a day for 14 days. In the solvent control group, an equal amount of water for injection was administrated.
# [9] = tested on: human gastric cancer SNU-16 xenografts; assay: Growth of subcutaneous xenografts of human gastric cancer SNU-16 in nude mice (HuFGFR267 study); format: in vivo; details: for Relative tumor volume RTV (mean ± SD): SNU-16, 12.5 mg/kg orally once a day; for Weight (g, mean ± SD): SNU-16 tumor-bearing mice, 12.5 mg/kg orally once a day
# Experimental: as §6, with “The formulation of compound was prepared once a week, and orally administered once a day for 14 days.” left out, “The formulation of AZD4547 was prepared once a week, and orally administered once a day for 14 days.” left out
# FGFR1, sequence (P11362 22-822): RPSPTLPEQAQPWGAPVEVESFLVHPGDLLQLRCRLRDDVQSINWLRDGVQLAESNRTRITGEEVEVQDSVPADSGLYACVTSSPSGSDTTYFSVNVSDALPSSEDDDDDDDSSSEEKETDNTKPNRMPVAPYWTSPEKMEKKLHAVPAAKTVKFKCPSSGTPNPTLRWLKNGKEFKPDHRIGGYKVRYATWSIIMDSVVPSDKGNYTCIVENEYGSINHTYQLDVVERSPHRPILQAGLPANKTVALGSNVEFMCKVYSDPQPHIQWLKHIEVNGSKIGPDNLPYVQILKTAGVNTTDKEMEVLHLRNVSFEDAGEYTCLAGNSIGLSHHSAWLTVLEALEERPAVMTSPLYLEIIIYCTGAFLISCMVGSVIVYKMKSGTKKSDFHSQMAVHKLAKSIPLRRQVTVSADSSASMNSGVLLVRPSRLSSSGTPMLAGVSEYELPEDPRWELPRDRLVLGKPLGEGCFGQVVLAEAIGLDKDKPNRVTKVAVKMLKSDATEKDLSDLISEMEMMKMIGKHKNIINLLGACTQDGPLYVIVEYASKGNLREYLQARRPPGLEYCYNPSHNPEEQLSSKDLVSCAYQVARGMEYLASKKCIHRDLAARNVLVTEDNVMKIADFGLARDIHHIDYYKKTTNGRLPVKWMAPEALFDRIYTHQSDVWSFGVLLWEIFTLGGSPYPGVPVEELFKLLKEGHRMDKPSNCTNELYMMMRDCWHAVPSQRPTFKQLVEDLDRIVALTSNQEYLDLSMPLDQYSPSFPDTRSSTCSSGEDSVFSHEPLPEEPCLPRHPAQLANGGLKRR
structure (smiles),measurement,setting,value
CN1CCN(Cc2ccc(NC(=O)c3cccc(C#Cc4cccnc4N)c3)cc2C(F)(F)F)CC1 [Example 6],10 nM inhibition ratio FGFR1,[1],74.7
same,10 nM inhibition ratio KDR,[2],35.2
same,10 nM inhibition ratio RET,[3],57.7
same,IC50,"[3]; measured twice, Mean ± SD",6 ± 0.4 nM
same,IC50,[4],17.9 ± 5.4 nM
same,"inhibition of RET phosphorylation and downstream signaling pathway (Western blot, FIG. 1)",[5],inhibited RET phosphorylation and the downstream signaling pathway
Cc1ccc(C(=O)Nc2ccc(CN3CCN(C)CC3)c(C(F)(F)F)c2)cc1C#Cc1cnc2cccnn12 [Ponatinib],10 nM inhibition ratio FGFR1,[1],79.5
same,10 nM inhibition ratio KDR,[2],85.3
same,10 nM inhibition ratio RET,[3],87.5
same,"inhibition of RET phosphorylation and downstream signaling pathway (Western blot, FIG. 1)",[5],inhibited RET phosphorylation and the downstream signaling pathway
same,F,"[6]; SD rats, PO (10 mg/kg) vs IV (2 mg/kg)",24.4%
same,AUC0-t,"[6]; SD, rat, plasma, iv, 2 mg/kg",1410 ng·h/mL
same,Vd,"[6]; SD, rat, plasma, iv, 2 mg/kg",7.78 L/kg
same,clearance,"[6]; SD, rat, plasma, iv, 2 mg/kg",22.2 mL/min/kg
same,half-life,"[6]; SD, rat, plasma, iv, 2 mg/kg",4.24 h
same,AUC0-t,"[6]; SD, rat, plasma, po, 10 mg/kg",1600 ng·h/mL
same,Cmax,"[6]; SD, rat, plasma, po, 10 mg/kg",241 ng/mL
same,Tmax,"[6]; SD, rat, plasma, po, 10 mg/kg",2.33 h
same,half-life,"[6]; SD, rat, plasma, po, 10 mg/kg",8.29 h
same,relative tumor proliferation rate T/C,"[7]; SNU-16, 30 mg/kg orally once a day for 21 days, day 21",36.20%
same,Relative tumor volume RTV (mean ± SD),[7]; d0,1.00 ± 0.00
same,Relative tumor volume RTV (mean ± SD),[7]; d3,1.46 ± 0.30
same,Relative tumor volume RTV (mean ± SD),[7]; d7,1.56 ± 0.52
same,Relative tumor volume RTV (mean ± SD),[7]; d10,1.56 ± 0.22
same,Relative tumor volume RTV (mean ± SD),[7]; d14,2.00 ± 0.38
same,Relative tumor volume RTV (mean ± SD),[7]; d17,1.94 ± 0.47
same,Relative tumor volume RTV (mean ± SD),[7]; d21,2.10 ± 0.34
same,"Weight (g, mean ± SD)",[7]; d0,23.6 ± 2.5 g
same,"Weight (g, mean ± SD)",[7]; d3,24.2 ± 2.9 g
same,"Weight (g, mean ± SD)",[7]; d7,23.5 ± 2.8 g
same,"Weight (g, mean ± SD)",[7]; d10,23.7 ± 2.9 g
same,"Weight (g, mean ± SD)",[7]; d14,24.5 ± 2.8 g
same,"Weight (g, mean ± SD)",[7]; d17,24.1 ± 2.6 g
same,"Weight (g, mean ± SD)",[7]; d21,24.6 ± 3.1 g
"COc1cc(CCc2cc(NC(=O)c3ccc(N4C[C@@H](C)N[C@@H](C)C4)cc3)n[nH]2)cc(OC)c1 [AZD4547, reference compound]",relative tumor proliferation rate T/C,"[8]; NCI-H1581, 12.5 mg/kg orally once a day for 14 days, 14th day",24.03%
same,Relative tumor volume RTV (mean ± SD),[8]; d0,1.00 ± 0.00
same,Relative tumor volume RTV (mean ± SD),[8]; d3,1.27 ± 0.44
same,Relative tumor volume RTV (mean ± SD),[8]; d7,3.43 ± 1.14
same,Relative tumor volume RTV (mean ± SD),[8]; d10,5.57 ± 3.62
same,Relative tumor volume RTV (mean ± SD),[8]; d14,13.81 ± 4.56
same,animal deaths during the experiment,"[8]; NCI-H1581, each group (HuFGFR267 50 mg/kg, AZD4547 12.5 mg/kg)",no mice died
same,"Weight (g, mean ± SD)",[8]; d0,18.2 ± 1.6 g
same,"Weight (g, mean ± SD)",[8]; d3,19.3 ± 1.6 g
same,"Weight (g, mean ± SD)",[8]; d7,20.1 ± 1.9 g
same,"Weight (g, mean ± SD)",[8]; d10,20.6 ± 2.2 g
same,"Weight (g, mean ± SD)",[8]; d14,21.3 ± 2.3 g
same,relative tumor proliferation rate T/C,"[9]; SNU-16, 12.5 mg/kg orally once a day for 21 days, day 21",18.46%
same,Relative tumor volume RTV (mean ± SD),[9]; d0,1.00 ± 0.00
same,Relative tumor volume RTV (mean ± SD),[9]; d3,0.92 ± 0.29
same,Relative tumor volume RTV (mean ± SD),[9]; d7,2.34 ± 1.23
same,Relative tumor volume RTV (mean ± SD),[9]; d10,2.96 ± 2.19
same,Relative tumor volume RTV (mean ± SD),[9]; d14,3.36 ± 3.14
same,Relative tumor volume RTV (mean ± SD),[9]; d17,3.77 ± 2.56
same,Relative tumor volume RTV (mean ± SD),[9]; d21,4.33 ± 3.29
same,animal deaths during the experiment,"[9]; SNU-16, each group (HuFGFR267 50 and 25 mg/kg, AZD4547 12.5 mg/kg)",no mice died
same,"Weight (g, mean ± SD)",[9]; d0,18.8 ± 1.2 g
same,"Weight (g, mean ± SD)",[9]; d3,19.5 ± 1.3 g
same,"Weight (g, mean ± SD)",[9]; d7,20.0 ± 1.5 g
same,"Weight (g, mean ± SD)",[9]; d10,20.7 ± 1.5 g
same,"Weight (g, mean ± SD)",[9]; d14,21.1 ± 1.6 g
same,"Weight (g, mean ± SD)",[9]; d17,20.9 ± 1.7 g
same,"Weight (g, mean ± SD)",[9]; d21,21.0 ± 1.7 g
